Here are results for five compounds from ChEMBL document CHEMBL1671754, “Reduced expression of the vca0421 gene of Vibrio cholerae O1 results in innate resistance to ciprofloxacin” (2010).

In brackets after ≈: the same amount, converted by molar mass.

Common to all, as to assay type: functional
Experiment [1] can be described thus: Antibacterial activity against Vibrio cholerae O1 569B harboring gyrA and parC genes by 2-fold agar dilution method. (In agar dilution the substance is mixed into plates at graded concentrations.)
The nature of experiment [2]: Antibacterial activity against Vibrio cholerae O1 CIP0.25-1 harboring Ser to Ile mutation at 83 position in gyrA and parC genes by 2-fold agar dilution method.
A short description of experiment [3]: Antibacterial activity against Vibrio cholerae O1 mTn-321 harboring Ser to Ile mutation at 83 position in gyrA and parC genes by 2-fold agar dilution method.
Experiment [4] deals with Escherichia coli. In words: Antibacterial activity against Escherichia coli JM109 harboring plasmid ptac85.
Experiment [5] has as its system Escherichia coli. Put plainly: Antibacterial activity against Escherichia coli JM109 harboring plasmid ptac85-vca0421.

One may read the MIC as the lowest concentration found to suppress growth. In the case of `O=C(O)c1cn(C2CC2)c2cc(N3CCNCC3)c(F)cc2c1=O` [CIPROFLOXACIN], in experiment [1], the lowest concentration to inhibit growth (MIC) was 0.004 µg/mL (≈ 0.0121 µM).

For `CCn1cc(C(=O)O)c(=O)c2cc(F)c(N3CCNCC3)nc21` [ENOXACIN], the MIC worked out at 0.0313 µg/mL (≈ 0.0977 µM) in experiment [1]; 2 µg/mL (≈ 6.24 µM) in experiment [2]; 0.25 µg/mL (≈ 0.78 µM) in experiment [3]; 4 µg/mL (≈ 12.5 µM) in the experiment on Escherichia coli [4]; 2 µg/mL (≈ 6.24 µM) against Escherichia coli [5].

With `C[C@@H]1CN(c2c(F)c(N)c3c(=O)c(C(=O)O)cn(C4CC4)c3c2F)C[C@H](C)N1` [SPARFLOXACIN], the MIC in experiment [1] is 0.004 µg/mL (≈ 0.0102 µM); in experiment [2], 0.125 µg/mL (≈ 0.319 µM); in experiment [3] it was 0.0625 µg/mL (≈ 0.159 µM); against Escherichia coli [4] it was 0.25 µg/mL (≈ 0.637 µM); with Escherichia coli [5], 0.125 µg/mL (≈ 0.319 µM).

In the case of `CCn1cc(C(=O)O)c(=O)c2cc(F)c(N3CCNCC3)cc21` [NORFLOXACIN], the MIC in experiment [1] was determined as 0.0078 µg/mL (≈ 0.0244 µM); in experiment [2], 2 µg/mL (≈ 6.26 µM); in experiment [3] it was 0.125 µg/mL (≈ 0.391 µM); against Escherichia coli [4], 1 µg/mL (≈ 3.13 µM); against Escherichia coli [5], 1 µg/mL (≈ 3.13 µM).

Regarding `CN(C)[C@@H]1C(O)=C(C(N)=O)C(=O)[C@@]2(O)C(O)=C3C(=O)c4c(O)cccc4[C@@](C)(O)[C@H]3C[C@@H]12` [TETRACYCLINE], the MIC in experiment [1] is 0.5 µg/mL (≈ 1.13 µM); in experiment [2], 4 µg/mL (≈ 9 µM); with Escherichia coli [4], 16 µg/mL (≈ 36 µM); against Escherichia coli [5], 8 µg/mL (≈ 18 µM).
